# In patent US5232917A, “Methods, compositions, and compounds for allosteric modulation of the GABA receptor by members of the androstane and pregnane series” (priority 1991, dated 1993):
# What was measured:
# Rotorod test = details: mouse, in vivo, ip
# Experimental: (§2) Adult male CFI mice (20-30g) were used in these studies. […] Ten to twelve mice were used per dose of test drug. […] Sedative potential was determined by a rotorod test where the number of mice staying on a rotating (6 rpm) rod for ≥1 min. in each of three trials was determined.
# [1] = test system: number of light/dark transitions (anxiety); assay: Light/dark transition test; format: in vivo, mice (male N.I.H. Swiss-Webster); details: for effect on number of light/dark transitions (words): 3α-OH-DHP 10, 20, 40 mg/kg, 5α-THDOC 20 mg/kg, diazepam 1.0, 5.0, 10, 20 mg/kg, 20 mg/kg
# Text: The light/dark transition test (Crawley and Goodwin, 1980) is based on the observation that rodents naturally tend to explore novel environments, but open, brightly lit arenas are aversive to the rodents and inhibit exploratory behavior (Christmas and Maxwell, 1970; File, 1980). […] Similar to the light/dark transition test, the open-field test measures the antagonism between the tendency to explore a novel environment and the tendency to remain still in an aversive environment (brightly lit arena). […] The open-field test provides a simple, non-punished assessment of the potential anxiolytic properties of novel compounds. Finally, 3α-OH-DHP was tested for anxiolytic properties in a Vogel conflict paradigm. The ability of BZs to attenuate the suppression of behavior by punishment in conflict paradigms is well established (Gellar et al., 1962; Vogel et al., 1971).
# Male N.I.H. Swiss-Webster mice (Harlan) weighing 15-20 g were used in all experiments. The mice were housed 4/cage in polyethylene cages with sawdust bedding. The colony room was environmentally controlled (22° C.) with a 12 hr. light/dark cycle (0600-1800 hrs.). The mice had free access to food and water. The experiments were run from 0700-1500 hrs. and groups were counterbalanced for time of day effects.
# The method used was previously described by Crawley and Goodwin (1980). The apparatus included a large box (26×33×24 cm) connected to a small box (15×22×14 cm) through an opening (5×6 cm). The large box was brightly lit with a standard 100W light bulb, while the small box was kept dark. Following pretreatment with a test drug, mice were placed in the center of the large box and the number of transitions between the large and small boxes was counted for 10 min. […] During the antagonist studies, CGS-8216 was administered 30 min. prior to the test drug.
# 2-Hydroxypropyl β-cyclodextrin Diazepam and chlordiazepoxide are available from Sigma, Co. (St. Louis, Mo.). CGS-8216 was obtained from Ciba-Geigy (Summit, N.J.). All drugs were dissolved in 20% β-cyclodextrin in water and sonicated overnight. All drugs were administered intraperitoneally in a volume of 100 μL/20 g. CGS-8216 was administered subcutaneously in a volume of 100 μL/20 g.
# (§1) The vehicle control data were analyzed across test days using an 1-way analysis of variance (ANOVA). […] The dose-response curves were then analyzed using an 1-way ANOVA, followed by Dunnett's t-test for individual comparisons between doses and control. The open-field and habituated locomotor data were analyzed using ANOVA followed by Dunnett's t-test. […] All data is expressed as the mean±S.E.M.
# [2] = test system: GABA receptor-chloride ionophore complex (GR complex); assay: Dissociation kinetics of [35S]TBPS in rat cerebral cortical membranes; format: binding; details: alphaxalone 300 nM, 3α-OH-DHP 20 nM
# [3] = test system: sedative potential (rotorod); details: dissolved in DMSO; Belelli et al., 1989; cited from earlier work
# [4] = test system: strychnine-induced convulsions; details: dissolved in DMSO; Belelli et al., 1989; cited from earlier work
# [5] = test system: metrazol-induced convulsions; details: dissolved in DMSO; Belelli et al., 1989; cited from earlier work
# [6] = test system: (+)bicuculline-induced seizures; details: dissolved in DMSO; Belelli et al., 1989; cited from earlier work
# [7] = test system: maximal electroshock seizure; details: dissolved in DMSO; Belelli et al., 1989; cited from earlier work
# locomotor activity = assay: Locomotor activity in habituated mice; format: in vivo, mice (male N.I.H. Swiss-Webster)
# Experimental: For evaluation of a drug's effects on general activity, mice were first habituated to the open-field apparatus for 15 min. The following day, mice were pretreated with a test drug and placed in the center of the activity chambers. The total distance traveled was measured for 10 min.
# as §1
# [8] = test system: sedative potential (rotorod); assay: Rotorod test; details: rotorod ED50 vs (+)bicuculline ED50
# Experimental: as §2
# BZ receptor = assay: [3H]flunitrazepam binding to the BZ receptor in rat hippocampal homogenates; details: pentobarbital 1.0 mM; 0.25 nM [3H]FLU; no GABA; FIG. 3
# [9] = test system: picrotoxin-induced convulsions; details: dissolved in DMSO; Belelli et al., 1989; cited from earlier work
# [10] = dissolved in DMSO; Belelli et al., 1989; cited from earlier work
# punished responding = assay: Vogel conflict paradigm (lick suppression); format: in vivo, mice (male N.I.H. Swiss-Webster); details: 3α-OH-DHP 20 mg/kg
# Text: An Anxio-Monitor (Omnitech Electronics, Columbus, Ohio) was used for measuring lick suppression. The testing chamber consisted of a clear plexiglass box (29 cm×29 cm×23 cm) with a metal drinking tube located 2.5 cm from the floor and extending 2 cm into the box. The shock was applied through the drinking spout and was controlled by the Anxio-Monitor. […] The reinforcer was 0.1M sucrose.
# The conflict test procedure described by Vogel et al. (1980) was employed. This procedure is a modification of the original lick suppression test first described by Vogel et al. (1971). After 24 hr. of water deprivation,mice were allowed to explore the test apparatus and drink without punishment for 10 min. or 100 licks. […] Mice were allowed unpunished access to the drinking tube for 20 licks, thereafter, every 10th lick was punished with 0.1 mA shock. The test duration was 5 min.
# as §1
# [11] = Na pentobarbital 30 μM, 2 nM [35S]TBPS
structure (smiles),measurement,setting,value
"C[C@]12CC[C@@H](O)C[C@@H]1CC[C@@H]1[C@@H]2CC[C@]2(C)[C@@H](C(=O)CO)CC[C@@H]12 [Example 5α-THDOC, 3α,21-dihydroxy-5α-pregnan-20-one]",TD50,Rotorod test,22.9 mg/kg
same,effect on number of light/dark transitions (words),[1],significantly different from vehicle
same,number of transitions in 10 min,"[1]; 5α-THDOC 10 mg/kg i.p., vehicle 35.2±2.0, p<0.06, FIG. 10",49.4±2.0 transitions
same,effect on number of light/dark transitions at the highest dose,"[1]; 5α-THDOC 40 mg/kg, p<0.05 vs vehicle",significant decrease
"CC(=O)[C@H]1CC[C@H]2[C@@H]3CC[C@H]4C[C@H](O)CC[C@]4(C)[C@H]3CC[C@]12C [Example 3α-OH-DHP, 3α-hydroxy-5α-pregnan-20-one]","Total percentage of specific sites, rapid (R)",[2]; Na pentobarbital 30 μM,35 ± 3%
same,"Total percentage of specific sites, slow (S)",[2]; Na pentobarbital 30 μM,68 ± 3%
same,"K-1, slowly dissociating component (S)",[2]; [11],0.011 ± 0.002 min⁻¹
same,"T1/2, rapidly dissociating component (R)",[2]; [11],6.4 ± 1 min
same,"T1/2, slowly dissociating component (S)",[2]; [11],76 ± 11 min
same,biphasic dissociation mechanism of [35S]TBPS,"[2]; pentobarbital 30 μM, FIGS. 2A, 2B",absent
same,ED50 RR (Rotorod),[3],40 to 100 mg/kg
same,ED50 STR (strychnine),[4],> 300 mg/kg
same,ED50 MTZ (metrazol),[5],18.8 ± 1.1 mg/kg
same,ED50 BIC (bicuculline),[6],4.1 ± 1.7 mg/kg
same,ED50 MES (maximal electroshock),[7],> 300 mg/kg
same,"total distance traveled, acclimated mice","locomotor activity; 3α-OH-DHP 20 mg/kg, controls 2061.2±157.7 cm, p<0.01",5694.7±608.4 cm
same,effect on locomotor activity,locomotor activity; acclimated mice,significant increase in locomotor activity
same,sedative liability at anticonvulsant doses,[8],low
same,number of transitions in 10 min (maximal effect),"[1]; 3α-OH-DHP 20 mg/kg i.p., FIG. 9",70.2±4.3 transitions
same,effect on number of light/dark transitions (words),[1],significant (p<0.01) increase
same,effect on number of light/dark transitions (words),[1]; listed as α-OH-DHP,number of transitions was increased
same,interaction with pentobarbital in the enhancement of [3H]FLU binding,BZ receptor,does not interact
same,ED50 PICRO (picrotoxin),[9],31.7 ± 1.1 mg/kg
same,LD50,[10],> 500 mg/kg
same,increase in number of shocks received vs controls,"punished responding; 5 min session, p=0.01, FIG. 14",235.6%
same,number of shocks received,punished responding; controls […],13.9±2.1
